Test results as given in patent US12377083B2 (WUHAN LL SCIENCE AND TECHNOLOGY DEVELOPMENT CO., LTD., priority 2019, dated 2025).

Key:
[1] = system: A2058 (human melanoma cells); assay: A2058 cell scratch (migration) assay with LPA; format: cell-based; conditions: 10 μM LPA, scratch area at 24 h
[2] = In vitro cytotoxicity assay in HepG2 cells, CCK-8 method; format: cell-based; conditions: human
Description: In vitro cytotoxicity assay for the compounds disclosed herein was performed in HepG2 cells using the CCK-8 method. HepG2 cells (Beina Bio) in the logarithmic growth phase were collected, the concentration of cell suspension was adjusted, and then the cells were plated on a 96-well cell culture plate at 50,000 cells/well. The cells were then incubated overnight in a cell incubator (5% CO2, 37° C.), and after 80-90% cell confluence was achieved, test compounds or vehicle (DMSO) at various concentration gradients were added after medium change. The resulting mixture was incubated in the cell incubator (5% CO2, 37° C.) for 48 h. After the treatment, the medium in the plate was discarded. The plate was washed twice with PBS, added with CCK-8 working solution (Beyotime) at 100 μL per well, and then incubated at 37° C. for 1.5 h away from the light. Absorbance at OD450 nm was measured for each well on a microplate reader, and CC50 value of each compound was analyzed and calculated.

[3] = In vitro metabolic stability, mouse liver microsomes; format: in vitro ADME; conditions: 1 mg/mL liver microsome protein, 37° C., read-out: Metabolism in mouse liver microsome T½ min
Description: (§1) The in vitro metabolic stability of the compounds disclosed herein was determined through incubation of liver microsomes of various species. A proper amount of test compound was added into a liver microsome reaction system (1 mg/mL liver microsome protein, 25 U/mL glucose-6 phosphate dehydrogenase, 1 mM NADP, 6 mM D-glucose 6-phosphate and 5 mM MgCl2), and then the mixture was incubated in a water bath kettle at 37° C. to start reaction. At each time point, 100 μL of the reaction system was added into a centrifuge tube containing 400 μL of internal standard working solution (containing a 200 ng/mL solution of dexamethasone, diclofenac, tolbutamide and labetalol in acetonitrile) precooled at 0° C. so as to stop the reaction, and the mixture was then centrifuged at 10,000 g for 10 min at 4° C. The supernatant was collected for LC-MS assay so as to obtain the values of in vitro metabolic half-life of the test compounds in liver microsomes of various species.

[4] = In vitro metabolic stability, rat liver microsomes; format: in vitro ADME; conditions: 1 mg/mL liver microsome protein, 37° C., read-out: Metabolism in rat liver microsome T½ min
Description: as §1

[5] = target: hLPAR1 (human lysophosphatidic acid receptor 1) (Homo sapiens, UniProt Q92633); assay: FLIPR assay of intracellular calcium increase induced by activation of hLPAR1 expressed in CHO-K1 cells; format: cell-based; conditions: CHO-K1 cells expressing hLPAR1, agonist oleoyl-L-α-lysophosphatidic acid 1 μM; read-out: LPAR1 IC50
Chain of hLPAR1 (human lysophosphatidic acid receptor 1) (Q92633 whole entry): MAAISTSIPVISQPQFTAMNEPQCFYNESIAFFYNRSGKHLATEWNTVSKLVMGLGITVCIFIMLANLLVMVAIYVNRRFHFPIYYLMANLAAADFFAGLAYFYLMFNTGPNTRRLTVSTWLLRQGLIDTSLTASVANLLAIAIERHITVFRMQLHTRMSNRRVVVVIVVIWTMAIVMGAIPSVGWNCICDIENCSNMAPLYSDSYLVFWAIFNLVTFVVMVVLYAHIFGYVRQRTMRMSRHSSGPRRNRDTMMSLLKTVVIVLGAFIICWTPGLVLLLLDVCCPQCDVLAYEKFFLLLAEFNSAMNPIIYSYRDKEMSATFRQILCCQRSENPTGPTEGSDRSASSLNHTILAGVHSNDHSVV
Outline: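 CHO-K1 cells expressing hLPAR1 were loaded with Fluo-4 AM for 1.0 h at 37° C, then preincubated 30 min at room temperature with compound. Oleoyl-LPA was added at 1 μM final, and calcium fluorescence was recorded by FLIPR for 2 min at 1-s intervals to assess antagonism.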

[6] = In vitro metabolic stability, human liver microsomes; format: in vitro ADME; conditions: 1 mg/mL liver microsome protein, 37° C., read-out: Metabolism in human liver microsome T½ min
Description: as §1

For `CN(C(=O)OCc1c(-c2ccc(O[C@H]3CCC[C@H](C(=O)O)C3)c(C(F)F)n2)cnn1C)C1CCCC1` (racemic) [Compound 63, (+/−)-(1S,3S)-3-((6-(5-(((cyclopentyl(methyl)carbamoyl)oxy)methyl)-1-methyl-1H-pyrazol-4-yl)-2-(difluoromethyl)pyridin-3-yl)oxy)cyclohexane-1-carboxylic Acid], the “Cell migration inhibition rate (%)” value [1] was “B (B: 30-50%)”, the CC50 at 48 h [2] was greater than 200 µM and the half-life [3] was 8.96 h. It also gave a half-life [4] of 0.749 h, an IC50 [5] of less than 0.05 µM and a half-life [6] of 6.43 h.

For `Cc1nc(-c2cnn(C)c2COC(=O)N(C)C2CCCC2)cnc1O[C@H]1CCC[C@H](C(=O)O)C1` (racemic) [Compound 66], the “Cell migration inhibition rate (%)” value [1] was “B (B: 30-50%)”, the half-life [3] was 11.7 h and the half-life [4] was 1.56 h. It also gave an IC50 [5] of less than 0.05 µM and a half-life [6] of 8.21 h.

With `CN(C(=O)OCc1ocnc1-c1ccc(O[C@H]2CCC[C@H](C(=O)O)C2)cc1)C1CCCC1` (racemic) [Compound 8, (+/−)-(1S,3S)-3-(4-(5-(((cyclopentyl(methyl)carbamoyl)oxy)methyl)oxazol-4-yl)phenoxy)cyclohexane-1-carboxylic Acid] the “Cell migration inhibition rate (%)” value [1] was “C (C: 0-30%)”, the CC50 at 48 h [2] was greater than 200 µM and the half-life [3] was greater than 0.5 h. The half-life [4] was greater than 0.5 h, the IC50 [5] was 0.3 to 10 µM and the half-life [6] was greater than 0.5 h.

In the case of `CN(C(=O)OCc1ocnc1-c1ccc(O[C@H]2CCC[C@H](C(=O)O)C2)cn1)C1CCCC1` (racemic) [Compound 14], the “Cell migration inhibition rate (%)” value [1] is reported as “C (C: 0-30%)”, the CC50 at 48 h [2] is reported as greater than 200 µM and the half-life [3] is reported as greater than 0.5 h. For the same compound, the half-life [4] was greater than 0.5 h, the IC50 [5] was 0.3 to 10 µM and the half-life [6] was greater than 0.5 h.

In the case of `Cc1nsc(-c2ccc(O[C@H]3CCC[C@H](C(=O)O)C3)cc2)c1COC(=O)N(C)C1CCCC1` (racemic) [Compound 28, (+/−)-(1S,3S)-3-(4-(4-(((cyclopentyl(methyl)carbamoyl)oxy)methyl)-3-methylisothiazol-5-yl)phenoxy)cyclohexane-1-carboxylic Acid], the “Cell migration inhibition rate (%)” value [1] is reported as “A (A: 50-70%)”, the CC50 at 48 h [2] is reported as greater than 200 µM and the half-life [3] is reported as greater than 0.5 h. The half-life [4] was less than 0.5 h, the IC50 [5] was less than 0.05 µM and the half-life [6] was greater than 0.5 h.

In the case of `Cc1snc(-c2ccc(O[C@H]3CCC[C@H](C(=O)O)C3)cc2)c1COC(=O)N(C)C1CCCC1` (racemic) [Compound 29, (+/−)-(1S,3S)-3-(4-(4-(((cyclopentyl(methyl)carbamoyl)oxy)methyl)-5-methylisothiazol-3-yl)phenoxy)cyclohexane-1-carboxylic Acid], the “Cell migration inhibition rate (%)” value [1] is reported as “B (B: 30-50%)”, the CC50 at 48 h [2] is reported as greater than 200 µM and the IC50 [5] is reported as less than 0.05 µM.

With `Cc1nnc(-c2ccc(O[C@H]3CCC[C@H](C(=O)O)C3)c(C)n2)cc1COC(=O)N(C)C1CCCC1` (racemic) [Compound 49] the “Cell migration inhibition rate (%)” value [1] was “B (B: 30-50%)”, the CC50 at 48 h [2] was greater than 200 µM and the IC50 [5] was less than 0.05 µM.

For `Cc1noc(-c2ccc(O[C@H]3CCC[C@H](C(=O)O)C3)cc2)c1COC(=O)N(C)C1CCCC1` (racemic) [Compound 4, (+/−)-(1S,3S)-3-(4-(4-(((cyclopentyl(methyl)carbamoyl)oxy)methyl)-3-methylisoxazol-5-yl)phenoxy)cyclohexane-1-carboxylic Acid], the CC50 at 48 h [2] was greater than 200 µM, the half-life [3] was 2.79 h and the half-life [4] was 0.218 h. It also gave a half-life [6] of 2.19 h.

For `Cc1noc(-c2ccc(C3(C(=O)O)CC3)cc2)c1NC(=O)O[C@H](C)c1ccccc1` [Compound 3], the “Cell migration inhibition rate (%)” value [1] was “C (C: 0-30%)”, the CC50 at 48 h [2] was greater than 200 µM and the IC50 [5] was 0.3 to 10 µM.

For `Cc1csc(-c2ccc(O[C@H]3CCC[C@H](C(=O)O)C3)c(C)n2)c1COC(=O)N(C)C1CCCC1` (racemic) [Compound 46], the “Cell migration inhibition rate (%)” value [1] was “A (A: 50-70%)”, the CC50 at 48 h [2] was greater than 200 µM and the IC50 [5] was less than 0.05 µM.

In the case of `CN(C(=O)OCc1c(-c2ccc(O[C@H]3CCC[C@H](C(=O)O)C3)c(F)c2)ncn1C)C1CCCC1` (racemic) [Compound 34, (+/−)-(1S,3S)-3-(4-(5-(((cyclopentyl(methyl)carbamoyl)oxy)methyl)-1-methyl-1H-imidazol-4-yl)-2-fluorophenoxy)cyclohexane-1-carboxylic Acid], the “Cell migration inhibition rate (%)” value [1] is reported as “B (B: 30-50%)”, the CC50 at 48 h [2] is reported as greater than 200 µM and the IC50 [5] is reported as 0.05 to 0.3 µM.

With `Cc1onc(-c2ccc(O[C@H]3CCC[C@H](C(=O)O)C3)cc2)c1COC(=O)N(C)C1CCCC1` (racemic) [Compound 7, (+/−)-(1S,3S)-3-(4-(4-(((cyclopentyl(methyl)carbamoyl)oxy)methyl)-5-methylisoxazol-3-yl)phenoxy)cyclohexane-1-carboxylic Acid] the “Cell migration inhibition rate (%)” value [1] was “A (A: 50-70%)”, the CC50 at 48 h [2] was greater than 200 µM and the half-life [3] was 2.48 h. The half-life [4] was 0.0468 h, the IC50 [5] was less than 0.05 µM and the half-life [6] was 1.81 h.

With `CN(C(=O)OCc1ocnc1-c1ccc(O[C@H]2CCC[C@H](C(=O)O)C2)c(C(F)(F)F)n1)C1CCCC1` (racemic) [Compound 25] the “Cell migration inhibition rate (%)” value [1] was “B (B: 30-50%)”, the CC50 at 48 h [2] was greater than 200 µM and the IC50 [5] was 0.3 to 10 µM.

With `Cc1noc(-c2ccc(O[C@H]3CCC[C@H](C(=O)O)C3)c(C(F)(F)F)n2)c1COC(=O)N(C)C1CCCC1` [Compound 37] the “Cell migration inhibition rate (%)” value [1] was “A (A: 50-70%)”, the CC50 at 48 h [2] was greater than 200 µM and the IC50 [5] was less than 0.05 µM.

In the case of `CN(C(=O)OCc1c(-c2ccc(O[C@H]3CCC[C@H](C(=O)O)C3)cc2)cnn1C)C1CCCC1` (racemic) [Compound 11, (+/−)-(1S,3S)-3-(4-(5-(((cyclopentyl(methyl)carbamoyl)oxy)methyl)-1-methyl-1H-pyrazol-4-yl)phenoxy)cyclohexane-1-carboxylate], the “Cell migration inhibition rate (%)” value [1] is reported as “A (A: 50-70%)”, the CC50 at 48 h [2] is reported as greater than 200 µM and the half-life [3] is reported as greater than 0.5 h. The half-life [4] was greater than 0.5 h and the half-life [6] was greater than 0.5 h.

For `CN(Cc1ccccc1)C(=O)OCc1nc2c(O[C@H]3CCC[C@H](C(=O)O)C3)cccc2s1` (racemic) [Compound 23, (+/−)-(1S,3S)-3-((2-(((benzyl(methyl)carbamoyl)oxy)methyl)benzo[d]thiazole-4-yl)oxy)cyclohexane-1-carboxylic Acid], the “Cell migration inhibition rate (%)” value [1] was “C (C: 0-30%)”, the CC50 at 48 h [2] was greater than 200 µM and the IC50 [5] was 0.3 to 10 µM.

For `Cc1nc(-n2cnc(C)c2COC(=O)N(C)C2CCCC2)ccc1O[C@H]1CCC[C@H](C(=O)O)C1` (racemic) [Compound 54], the “Cell migration inhibition rate (%)” value [1] was “B (B: 30-50%)”, the CC50 at 48 h [2] was greater than 200 µM and the IC50 [5] was less than 0.05 µM.

For `Cc1nc(-c2cnn(C)c2COC(=O)N(C)C2CCCC2)ccc1O[C@H]1CCC[C@H](C(=O)O)C1` (racemic) [Compound 16, (+/−)-(1S,3S)-3-((6-(5-(((cyclopentyl(methyl)carbamoyl)oxy)methyl)-1-methyl-1H-pyrazol-4-yl)-2-methylpyridin-3-yl)oxy)cyclohexane-1-carboxylic Acid], the “Cell migration inhibition rate (%)” value [1] was “A (A: 50-70%)”, the CC50 at 48 h [2] was greater than 200 µM and the half-life [4] was 1.81 h. For the same compound, the IC50 [5] was less than 0.05 µM and the half-life [6] was 10.3 h.

In the case of `CN(C(=O)OCc1nocc1-c1ccc(O[C@H]2CCC[C@H](C(=O)O)C2)cc1)C1CCCC1` (racemic) [Compound 9, (+/−)-(1S,3S)-3-(4-(3-(((cyclopentyl(methyl)carbamoyl)oxy)methyl)isoxazol-4-yl)phenoxy)cyclohexane-1-carboxylic Acid], the “Cell migration inhibition rate (%)” value [1] is reported as “C (C: 0-30%)”, the CC50 at 48 h [2] is reported as greater than 200 µM and the IC50 [5] is reported as 0.3 to 10 µM.

In the case of `CN(C(=O)OCc1c(-c2ccc(O[C@H]3CCC[C@H](C(=O)O)C3)c(C(F)(F)F)n2)ncn1C)C1CCCC1` (racemic) [Compound 32], the “Cell migration inhibition rate (%)” value [1] is reported as “B (B: 30-50%)”, the CC50 at 48 h [2] is reported as greater than 200 µM and the IC50 [5] is reported as 0.05 to 0.3 µM.

In the case of `CN(Cc1ccccc1)C(=O)OCc1c(-c2ccc(O[C@H]3CCC[C@H](C(=O)O)C3)cc2)ncn1C` (racemic) [Compound 24], the “Cell migration inhibition rate (%)” value [1] is reported as “C (C: 0-30%)”, the CC50 at 48 h [2] is reported as greater than 200 µM and the IC50 [5] is reported as 0.3 to 10 µM.

With `Cc1nc(-c2c(C(F)(F)F)nn(C)c2COC(=O)N(C)C2CCCC2)ccc1O[C@H]1CCC[C@H](C(=O)O)C1` (racemic) [Compound 33] the “Cell migration inhibition rate (%)” value [1] was “B (B: 30-50%)”, the CC50 at 48 h [2] was greater than 200 µM and the IC50 [5] was less than 0.05 µM.

For `Cc1nc(-c2nsc(C)c2COC(=O)N(C)C2CCCC2)ccc1O[C@H]1CCC[C@H](C(=O)O)C1` (racemic) [Compound 39], the “Cell migration inhibition rate (%)” value [1] was “B (B: 30-50%)”, the CC50 at 48 h [2] was greater than 200 µM and the IC50 [5] was less than 0.05 µM.
